Experimental data reported in PMC6396489 (Cell Communication and Signaling : CCS, 2019).
Numbering of substitutions follows the chain as printed.

Tests used:
[1] = molecular target: T1, Shp1 S118A/R138E/S140A mutant (Homo sapiens, UniProt P29350, R136E/S116A/S138A); experiment: Isothermal titration calorimetry, Shp1 S118A/R138E/S140A mutant; assay type: binding; conditions: very small heat effect, value not with sufficient confidence
T1 construct: a tailless-form of Shp1 (residues 1–529) has previously been used [25] and it is used also in this study; 6xHis (N); made in house; host or cells: E. coli BL21(DE3)
T1 sequence (P29350 1-529 isoform P29350-3 S118A/R138E/S140A): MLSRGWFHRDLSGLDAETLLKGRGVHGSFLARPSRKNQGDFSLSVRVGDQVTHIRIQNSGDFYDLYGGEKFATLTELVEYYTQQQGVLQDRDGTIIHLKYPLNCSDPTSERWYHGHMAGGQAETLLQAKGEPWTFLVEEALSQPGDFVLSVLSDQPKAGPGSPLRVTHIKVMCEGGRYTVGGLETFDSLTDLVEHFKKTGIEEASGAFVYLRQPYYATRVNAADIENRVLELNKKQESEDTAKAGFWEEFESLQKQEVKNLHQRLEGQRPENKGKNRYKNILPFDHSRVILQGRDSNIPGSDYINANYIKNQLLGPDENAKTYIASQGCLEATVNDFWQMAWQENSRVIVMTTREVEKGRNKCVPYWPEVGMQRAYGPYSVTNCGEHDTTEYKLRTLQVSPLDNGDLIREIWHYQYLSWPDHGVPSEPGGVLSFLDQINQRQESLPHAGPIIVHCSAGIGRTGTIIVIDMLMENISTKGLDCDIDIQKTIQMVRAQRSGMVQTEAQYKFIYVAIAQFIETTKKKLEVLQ
Method: ITC measurements were performed by using a Nano-ITC III (TA instruments, New Castle, DE, USA) with a reaction cell volume of 1 ml kept at 25 °C. A protein solution of 10 μM was titrated into the calorimetric cell with a solution of 50–100 μM of the ligand GroPIns4P (Ins4P) in the syringe. A sequence of 16 injections of 15 μL volume was programmed with a stirring speed of 250 rpm at 500 s intervals. Protein samples were prepared with protein solutions at 25 °C in 20 mM Tris buffer pH 7.4 with 50 mM NaCl and 1 mM TCEP. To minimise the differences in buffer composition and pH between cell and syringe, both ligand and protein solutions were prepared with the same batch of buffer. The heat of dilution of the GroPIns4P into the buffer solution was measured in a separate experiment and appropriate corrections were made. The heat evolved after each ligand injection was obtained from the integral of the calorimetric signal. Raw data were integrated, corrected for non-specific heats and normalized for concentration. The equilibrium dissociation constant (KD), binding enthalpy (ΔbH) and binding stoichiometry (n) were obtained by nonlinear regression of the experimental data using a model of independent binding sites, by means of the NanoAnalyze software. Experiments were performed in duplicate.

Src = experiment: Western blotting of Src and PLCγ phosphorylation in NIH3T3 cells; assay type: cell-based
Method: NIH3T3 and Raw 264.7 cells were cultured in DMEM supplemented with 2 mM L-glutamine, 50 U/mL penicillin, […] streptomycin, and 10% CS or heat-inactivated FBS (30 min at 55 °C), respectively. NIH3T3 cells were transfected with different plasmids using the Lipofectamine LTX/plus reagent according to the manufacturer’s instructions. For immunofluorescence experiments, NIH3T3 cells were seeded onto glass coverslips in 24-well plates at a concentration suitable for 70% confluence without transfection or 50% confluence in the case of Lipofectamine-based cell transfection. In the latter, approximately 24 h after seeding, NIH3T3 cells were transiently transfected with different plasmids with the Lipofectamine LTX/plus reagent following the manufacturer’s instructions. Before treatments, NIH3T3 cells were serum-starved in DMEM with 2 mM glutamine, 50 U/mL penicillin and streptomycin for 16–20 h. The cells were then treated with different stimuli and/or inhibitors, as indicated in the text and/or Figure legends. Addition of exogenous GroPIns4P was at 50 μM (unless otherwise indicated), a concentration eliciting an intracellular concentration of about 1.5 μM, as calculated from the Nernst equation (with T = 300 K, z = − 3, and Veq = − 30 mV, an average value for cultured, non-excitable cells).
NIH3T3 cells were washed with ice-cold PBS and lysed on ice in buffer containing 20 mM Tris-HCl, pH 8.0, 150 mM NaCl, 1% Triton-X100, 5 mM Na3VO4, 30 mM β-glycerophosphate and 10 mM NaF supplemented with the protease inhibitor cocktail and processed for SDS-PAGE. Westen blotting was performed with the relevant antibodies. For immunoprecipitation experiments, 2 μg of an anti-Shp1 antibody or 5 μg of an anti-Src antibody were added to 1 mg of NIH3T3 cell lysates at 4 °C and incubated overnight. The samples were then incubated with A or G protein agarose beads for 1 h at 4 °C. Western blotting was performed from the washed and denatured complexes.

Shp1 = molecular target: T2, Shp1 (Homo sapiens, UniProt P29350); experiment: In-vitro dephosphorylation of Src by recombinant Shp1; assay type: biochemical; conditions: 50 μM, 10 min at 37 °C
T2 construct: the C-terminal truncated form of human Shp1 cDNA (His-Shp1; amino acids 1–529); made in house; host or cells: E. coli BL21(DE3)
T2 sequence (P29350 1-529 isoform P29350-3): T1 sequence (P29350 1-529 isoform P29350-3 S118A/R138E/S140A) with A118S, E138R, A140S
Method: The immunoprecipitates were washed three times with lysis buffer, three times with lysis buffer without phosphatase inhibitors, and twice with phosphatase buffer (100 mM Na-Hepes, pH 7.4, 150 mM NaCl, 1 mM EDTA, and 10 mM DTT). The immunoprecipitates were then split equally into different tubes for treatment with Shp1 or buffer only. The treatment consisted of the addition of 2 μg of Shp1 to the immunoprecipitates in the absence or presence of 50 μM GroPIns4P and an incubation at 37 °C for different times. The reactions were terminated by the addition of concentrated SDS-sample buffer.

[2] = NIH3T3 overexpressing Shp1-C455S, 50 μM

## O=P(O)(O)OC1C(O)C(O)C(OP(=O)(O)OCC(O)CO)C(O)C1O (stereo not shown) [GroPIns4P, glycerophosphoinositol 4-phosphate]
[1]
  KD relative to Shp1 WT: about one order of magnitude higher
Src; NIH3T3, 50 μM
  phosphorylation of PLCγ on Tyr783: induced an increase in phosphorylation
Src; NIH3T3, 50 μM for 2 to 5 min
  Src activating Tyr418 phosphorylation: increased
  Src inhibitory Tyr530 phosphorylation: markedly decreased
Src; [2]
  Src Tyr418 or PLCγ tyrosine phosphorylation: no increase
  Src dephosphorylation (pTyr530): failed to induce Src dephosphorylation
Shp1
  effect on Shp1 phosphatase activity against immunopurified Src (pTyr530): stimulated Shp1 activity and induced Src dephosphorylation
